Data from US20150094474A1, “AGRICULTURAL CHEMICALS” (Redx Pharma Ltd., priority 2012, published 2015).

What was measured:
barley = assay: Herbicidal bioassay, barley (% necrosis); type: in vivo
In short: (§1)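 Lolium perenne, barley, peas and Chinese cabbage at 2-4 true leaf stage sprayed simultaneously with a Potter tower, compounds in DMSO at six concentrations (0.05% to 0.0001%). Phytotoxicity scored as % necrosis per EPPO PP1/135 at set intervals; five replicates per treatment and species; DMSO and water controls.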

peas = assay: Herbicidal bioassay, peas (% necrosis); type: in vivo
In short: as §1

Q: How did the “Sum of % necrosis in barley” value (barley; Dose 0.000001, Day 0) turn out when `COc1cc(OC)nc(NC(=O)NS(=O)(=O)c2cc(CNS(C)(=O)=O)ccc2COC(C)=O)n1` [Compound 61, [2-[(4,6-Dimethoxypyrimidin-2-yl)carbamoylsulfamoyl]-4-(methanesulfonamidomethyl)phenyl]methylacetate] was run?
A: The value was “C (less than 50% necrosis)”.

Q: What about the “Sum of % necrosis in barley” value (barley; Dose 0.000001, Day 1) of the same compound?
A: Its value is “C (less than 50% necrosis)”.

Q: What about the “Sum of % necrosis in barley” value (barley; Dose 0.000001, Day 3) of the same compound?
A: The value was “C (less than 50% necrosis)”.

Q: What about the “Sum of % necrosis in barley” value (barley; Dose 0.000001, Day 7) of the same compound?
A: The value was “C (less than 50% necrosis)”.

Q: What about the “Sum of % necrosis in barley” value (barley; Dose 0.000001, Day 10) of the same compound?
A: The value was “C (less than 50% necrosis)”.

Q: What about the “Sum of % necrosis in barley” value (barley; Dose 0.000001, Day 14) of the same compound?
A: The value was “C (less than 50% necrosis)”.

Q: And the “Sum of % necrosis in barley” value (barley; Dose 0.000005, Day 0)?
A: Its value is “C (less than 50% necrosis)”.

Q: And the “Sum of % necrosis in barley” value (barley; Dose 0.000005, Day 1)?
A: Its value is “C (less than 50% necrosis)”.

Q: And the “Sum of % necrosis in barley” value (barley; Dose 0.000005, Day 3)?
A: Its value is “C (less than 50% necrosis)”.

Q: And the “Sum of % necrosis in barley” value (barley; Dose 0.000005, Day 7)?
A: Its value is “C (less than 50% necrosis)”.

Q: What about the “Sum of % necrosis in barley” value (barley; Dose 0.000005, Day 10) of the same compound?
A: The value was “C (less than 50% necrosis)”.

Q: And the “Sum of % necrosis in barley” value (barley; Dose 0.000005, Day 14)?
A: The value was “C (less than 50% necrosis)”.

Q: And the “Sum of % necrosis in barley” value (barley; Dose 0.00001, Day 0)?
A: Its value is “C (less than 50% necrosis)”.

Q: What about the “Sum of % necrosis in barley” value (barley; Dose 0.00001, Day 1) of the same compound?
A: The value was “C (less than 50% necrosis)”.

Q: And the “Sum of % necrosis in barley” value (barley; Dose 0.00001, Day 3)?
A: The value was “C (less than 50% necrosis)”.

Q: And the “Sum of % necrosis in barley” value (barley; Dose 0.00001, Day 7)?
A: Its value is “C (less than 50% necrosis)”.

Q: And the “Sum of % necrosis in barley” value (barley; Dose 0.00001, Day 10)?
A: Its value is “C (less than 50% necrosis)”.

Q: What about the “Sum of % necrosis in barley” value (barley; Dose 0.00001, Day 14) of the same compound?
A: The value was “C (less than 50% necrosis)”.

Q: What about the “Sum of % necrosis in barley” value (barley; Dose 0.00005, Day 0) of the same compound?
A: The value was “C (less than 50% necrosis)”.

Q: What about the “Sum of % necrosis in barley” value (barley; Dose 0.00005, Day 1) of the same compound?
A: The value was “C (less than 50% necrosis)”.

Q: What about the “Sum of % necrosis in barley” value (barley; Dose 0.00005, Day 3) of the same compound?
A: Its value is “C (less than 50% necrosis)”.

Q: What about the “Sum of % necrosis in barley” value (barley; Dose 0.00005, Day 7) of the same compound?
A: Its value is “C (less than 50% necrosis)”.

Q: And the “Sum of % necrosis in barley” value (barley; Dose 0.00005, Day 10)?
A: Its value is “C (less than 50% necrosis)”.

Q: What about the “Sum of % necrosis in barley” value (barley; Dose 0.00005, Day 14) of the same compound?
A: Its value is “C (less than 50% necrosis)”.

Q: What about the “Sum of % necrosis in barley” value (barley; Dose 0.0001, Day 0) of the same compound?
A: Its value is “C (less than 50% necrosis)”.

Q: And the “Sum of % necrosis in barley” value (barley; Dose 0.0001, Day 1)?
A: Its value is “C (less than 50% necrosis)”.

Q: And the “Sum of % necrosis in barley” value (barley; Dose 0.0001, Day 3)?
A: Its value is “C (less than 50% necrosis)”.

Q: What about the “Sum of % necrosis in barley” value (barley; Dose 0.0001, Day 7) of the same compound?
A: The value was “C (less than 50% necrosis)”.

Q: What about the “Sum of % necrosis in barley” value (barley; Dose 0.0001, Day 10) of the same compound?
A: Its value is “C (less than 50% necrosis)”.

Q: And the “Sum of % necrosis in barley” value (barley; Dose 0.0001, Day 14)?
A: Its value is “C (less than 50% necrosis)”.

Q: And the “Sum of % necrosis in barley” value (barley; Dose 0.0005, Day 0)?
A: Its value is “C (less than 50% necrosis)”.

Q: What about the “Sum of % necrosis in barley” value (barley; Dose 0.0005, Day 1) of the same compound?
A: The value was “C (less than 50% necrosis)”.

Q: What about the “Sum of % necrosis in barley” value (barley; Dose 0.0005, Day 3) of the same compound?
A: The value was “C (less than 50% necrosis)”.

Q: And the “Sum of % necrosis in barley” value (barley; Dose 0.0005, Day 7)?
A: Its value is “C (less than 50% necrosis)”.

Q: And the “Sum of % necrosis in barley” value (barley; Dose 0.0005, Day 10)?
A: The value was “C (less than 50% necrosis)”.

Q: And the “Sum of % necrosis in barley” value (barley; Dose 0.0005, Day 14)?
A: Its value is “C (less than 50% necrosis)”.

Q: What about the “Sum of % necrosis in Pea” value (peas; Dose 0.000001, Day 0) of the same compound?
A: The value was “C (less than 50% necrosis)”.

Q: And the “Sum of % necrosis in Pea” value (peas; Dose 0.000001, Day 1)?
A: The value was “C (less than 50% necrosis)”.

Q: And the “Sum of % necrosis in Pea” value (peas; Dose 0.000001, Day 3)?
A: Its value is “C (less than 50% necrosis)”.

Q: What about the “Sum of % necrosis in Pea” value (peas; Dose 0.000001, Day 7) of the same compound?
A: Its value is “C (less than 50% necrosis)”.

Q: What about the “Sum of % necrosis in Pea” value (peas; Dose 0.000001, Day 10) of the same compound?
A: The value was “C (less than 50% necrosis)”.

Q: What about the “Sum of % necrosis in Pea” value (peas; Dose 0.000001, Day 14) of the same compound?
A: The value was “C (less than 50% necrosis)”.

Q: What about the “Sum of % necrosis in Pea” value (peas; Dose 0.000005, Day 0) of the same compound?
A: The value was “C (less than 50% necrosis)”.

Q: And the “Sum of % necrosis in Pea” value (peas; Dose 0.000005, Day 1)?
A: Its value is “C (less than 50% necrosis)”.

Q: What about the “Sum of % necrosis in Pea” value (peas; Dose 0.000005, Day 3) of the same compound?
A: Its value is “C (less than 50% necrosis)”.

Q: What about the “Sum of % necrosis in Pea” value (peas; Dose 0.000005, Day 7) of the same compound?
A: Its value is “C (less than 50% necrosis)”.

Q: What about the “Sum of % necrosis in Pea” value (peas; Dose 0.000005, Day 10) of the same compound?
A: Its value is “C (less than 50% necrosis)”.

Q: What about the “Sum of % necrosis in Pea” value (peas; Dose 0.000005, Day 14) of the same compound?
A: The value was “C (less than 50% necrosis)”.

Q: What about the “Sum of % necrosis in Pea” value (peas; Dose 0.00001, Day 0) of the same compound?
A: Its value is “C (less than 50% necrosis)”.

Q: What about the “Sum of % necrosis in Pea” value (peas; Dose 0.00001, Day 1) of the same compound?
A: Its value is “C (less than 50% necrosis)”.

Q: And the “Sum of % necrosis in Pea” value (peas; Dose 0.00001, Day 3)?
A: The value was “C (less than 50% necrosis)”.

Q: What about the “Sum of % necrosis in Pea” value (peas; Dose 0.00001, Day 7) of the same compound?
A: The value was “C (less than 50% necrosis)”.

Q: And the “Sum of % necrosis in Pea” value (peas; Dose 0.00001, Day 10)?
A: Its value is “C (less than 50% necrosis)”.

Q: What about the “Sum of % necrosis in Pea” value (peas; Dose 0.00001, Day 14) of the same compound?
A: The value was “B (50%-80% necrosis)”.

Q: And the “Sum of % necrosis in Pea” value (peas; Dose 0.00005, Day 0)?
A: The value was “C (less than 50% necrosis)”.

Q: And the “Sum of % necrosis in Pea” value (peas; Dose 0.00005, Day 1)?
A: Its value is “C (less than 50% necrosis)”.

Q: And the “Sum of % necrosis in Pea” value (peas; Dose 0.00005, Day 3)?
A: The value was “C (less than 50% necrosis)”.

Q: What about the “Sum of % necrosis in Pea” value (peas; Dose 0.00005, Day 7) of the same compound?
A: Its value is “C (less than 50% necrosis)”.

Q: And the “Sum of % necrosis in Pea” value (peas; Dose 0.00005, Day 10)?
A: The value was “B (50%-80% necrosis)”.

Q: What about the “Sum of % necrosis in Pea” value (peas; Dose 0.00005, Day 14) of the same compound?
A: The value was “B (50%-80% necrosis)”.

Q: What about the “Sum of % necrosis in Pea” value (peas; Dose 0.0001, Day 0) of the same compound?
A: The value was “C (less than 50% necrosis)”.

Q: What about the “Sum of % necrosis in Pea” value (peas; Dose 0.0001, Day 1) of the same compound?
A: The value was “C (less than 50% necrosis)”.

Q: And the “Sum of % necrosis in Pea” value (peas; Dose 0.0001, Day 3)?
A: Its value is “C (less than 50% necrosis)”.

Q: And the “Sum of % necrosis in Pea” value (peas; Dose 0.0001, Day 7)?
A: Its value is “C (less than 50% necrosis)”.

Q: And the “Sum of % necrosis in Pea” value (peas; Dose 0.0001, Day 10)?
A: Its value is “C (less than 50% necrosis)”.

Q: And the “Sum of % necrosis in Pea” value (peas; Dose 0.0001, Day 14)?
A: Its value is “C (less than 50% necrosis)”.

Q: And the “Sum of % necrosis in Pea” value (peas; Dose 0.0005, Day 0)?
A: Its value is “C (less than 50% necrosis)”.

Q: And the “Sum of % necrosis in Pea” value (peas; Dose 0.0005, Day 1)?
A: The value was “C (less than 50% necrosis)”.

Q: And the “Sum of % necrosis in Pea” value (peas; Dose 0.0005, Day 3)?
A: Its value is “C (less than 50% necrosis)”.

Q: What about the “Sum of % necrosis in Pea” value (peas; Dose 0.0005, Day 7) of the same compound?
A: The value was “B (50%-80% necrosis)”.

Q: What about the “Sum of % necrosis in Pea” value (peas; Dose 0.0005, Day 10) of the same compound?
A: The value was “B (50%-80% necrosis)”.

Q: And the “Sum of % necrosis in Pea” value (peas; Dose 0.0005, Day 14)?
A: The value was “A (over 80% necrosis)”.
